Columns and labels:
[1] = tested on: Untransfected glioblastoma cells; assay: Cytotoxicity in glioblastoma cells; assay type: cell-based, human; conditions: 1 μM
Text: (§1) The neoplastic cell lines used in the survey were standard tumor cell lines, e.g., PA1 human ovarian cell line, SKOV3 human ovarian cell line, HT29 human colon tumor cell line, DU145 human prostate tumor cell line, U251 human glioblastoma cell line, U251-MDR human glioblastoma cell line transfected with DNA encoding MDR, T98G human glioblastoma cell line, SP-1 human leukemia cell line, and Daudi human leukemia cell line.
(§2) Glioblastoma cells were transfected with a gene encoding multiple drug resistance (MDR).

[2] = tested on: MDR-transfected glioblastoma cells; assay: Cytotoxicity in drug resistant glioblastoma cells
Text: as §1, §2

human cancer cell lines = assay: Cytotoxic activity of taurultam in vitro; assay type: cell-based
Experimental: The cytotoxic activity of taurultam was evaluated in vitro using the same human cancer cell lines as described above. […] The data also indicate that the cytotoxic effect is directly proportionate to the number of methylol molecules liberated per molecule of methylol-containing compound

| SMILES | cytotoxicity [1] | cytotoxicity ([2]; 1 μM) | resistance of transfected cells ([2]; MDR-transfected versus untransfected) | apoptotic death (human cancer cell lines; cancer cells versus normal control cells) | cytotoxic activity relative to taurolidine (human cancer cell lines; of the activity observed with taurolidine) |
| --- | --- | --- | --- | --- | --- |
| COc1cccc2c1C(=O)c1c(O)c3c(c(O)c1C2=O)C[C@@](O)(C(=O)CO)C[C@@H]3O[C@H]1C[C@H](N)[C@H](O)[C@H](C)O1 [adriamycin] | killed | resistant | 100-1000 times | – | – |
| O=S1(=O)CCNCN1 [taurultam] | – | – | – | induced apoptotic death of cancer cells but not normal control cells | approximately 75% |

From US6703413B2 (Rhode Island Hospital, priority 1999, dated 2004)
